Laboratory results as given in patent US20080171783A1, “COMPOSITIONS AND METHODS FOR TREATING HYPERPROLIFERATIVE DISEASE” (Migenix Inc., priority 2006, published 2008).

How the values were obtained:
K-562 = test: NCI In Vitro Cell Line Screening (SRB); type: cell-based; details: Homo sapiens, K562, K-562, Leukemia, 48 h
NCI-H322M = test: NCI In Vitro Cell Line Screening (SRB); type: cell-based, human; details: Non-Small Cell Lung Cancer, 48 h
NCI-H460 = test: NCI In Vitro Cell Line Screening (SRB); type: cell-based, human; details: NCI-H460, Non-Small Cell Lung Cancer, 48 h
NCI-H522 = test: NCI In Vitro Cell Line Screening (SRB); type: cell-based, human; details: NCI-H522, Non-Small Cell Lung Cancer, 48 h
HCC-2998 = test: NCI In Vitro Cell Line Screening (SRB); type: cell-based; details: HCC-2998, Colon Cancer, 48 h
HT29 = test: NCI In Vitro Cell Line Screening (SRB); type: cell-based; details: HT29, Colon Cancer, 48 h
KM12 = test: NCI In Vitro Cell Line Screening (SRB); type: cell-based, human; details: KM12, Colon Cancer, 48 h
SF-295 = test: NCI In Vitro Cell Line Screening (SRB); type: cell-based, human; details: SF-295, CNS Cancer, 48 h
MALME-3M = test: NCI In Vitro Cell Line Screening (SRB); type: cell-based, human; details: Melanoma, 48 h
SK-MEL-28 = test: NCI In Vitro Cell Line Screening (SRB); type: cell-based, human; details: SK-MEL-28, Melanoma, 48 h
OVCAR-4 = test: NCI In Vitro Cell Line Screening (SRB); type: cell-based, human; details: OVCAR-4, Ovarian Cancer, 48 h
SK-OV-3 = test: NCI In Vitro Cell Line Screening (SRB); type: cell-based, human; details: SK-OV-3, Ovarian Cancer, 48 h
786-0 = test: NCI In Vitro Cell Line Screening (SRB); type: cell-based, human; details: 786-0, Renal Cancer, 48 h
CAKI-1 = test: NCI In Vitro Cell Line Screening (SRB); type: cell-based, human; details: CAKI-1, Renal Cancer, 48 h
SN12C = test: NCI In Vitro Cell Line Screening (SRB); type: cell-based, human; details: Renal Cancer, 48 h
TK-10 = test: NCI In Vitro Cell Line Screening (SRB); type: cell-based, human; details: TK-10, Renal Cancer, 48 h
UO-31 = test: NCI In Vitro Cell Line Screening (SRB); type: cell-based, human; details: UO-31, Renal Cancer, 48 h
BT-549 = test: NCI In Vitro Cell Line Screening (SRB); type: cell-based, human; details: BT-549, Breast Cancer, 48 h
[1] = system: 5 Leukemia and 5 Colon Cancer Cell Lines; test: Cell viability by XTT, cell line panel; type: cell-based
Procedure: Compounds were solubilized at […] in DMSO and were stored at −20° C. Test compounds were initially tested at a single concentration of 10 μM and a subset of test compounds were further tested in selected cell lines using a six concentration dose response curve.
Cell Preparation Cancer cell lines were passaged in T-75 flasks prior to use in the assay in cell culture medium recommended by the ATCC (American Type Culture Collection; Table 6). On the day preceding the assay, the cells were split 1:2 to assure they were in an exponential growth phase at the time of compound treatment. Total cell and viability quantification was performed using a hemocytometer and Trypan Blue dye exclusion. […] The cells were resuspended at the appropriate cell per mL (Table 6) in tissue culture medium and added to the microtitre plates in a volume of 100 μL. Colon cell lines were incubated overnight at 37° C./5% CO2 to allow for cell adherence to the plates.
Plate Format: Each plate contains cell control wells (cells only), drug calorimetric control wells (drug only) as well as experimental wells (drug plus cells). Samples were tested in triplicate at a concentration of 10 μM and five half-logarithmic dilutions.
Cell Viability by XTT: Following incubation at 37° C. in a 5% CO2 incubator for four days, the test plates were stained with the tetrazolium dye XTT (2,3-bis(2-methoxy-4-nitro-5-sulfophenyl)-5-[(phenylamino)carbonyl]-2H-tetrazolium hydroxide). XTT-tetrazolium was metabolized by the mitochondrial enzymes of metabolically active cells to a soluble formazan product. XTT solution was prepared daily as a stock of 1 mg/mL in RPMI1640. Phenazine methosulfate (PMS) solution was prepared at 0.15 mg/mL in phosphate buffered saline (PBS) and stored in the dark at −20° C. XTT/PMS stock was prepared immediately before use by adding 40 μL of PMS per mL of XTT solution. Fifty (50) microlitres of XTT/PMS was added to each well of the plate and the plate was reincubated for 4 hours at 37° C. Plates were sealed with adhesive plate sealers and shaken gently or inverted several times to mix the soluble formazan product and the plate was read spectrophotometrically at 450/650 nm with a Molecular Devices Vmax plate reader. […] An Average Response Factor (ARF) was calculated for each compound by averaging the ten Percentage of Control values for the cell lines. […] Deviations below 100% control indicate activity. The concentration of each tested compound is 10 μM.

[2] = Homo sapiens, read-out: LC50 (the source's name)

## Cc1ccc(NC(=O)[C@@H](CCCCN)NC(=O)Nc2ccc3c(c2)Cc2ccccc2-3)cc1 [Compound 173, (R)-6-AMINO-2-[3-(9H-FLUOREN-2-YL)-UREIDO]-HEXANOIC ACID P-TOLYLAMIDE]
K-562
  GI50: 1.67 µM
K-562; read-out: LC50 (the source's name)
  CC50: > 100 µM
NCI-H322M; Homo sapiens
  GI50: 2.54 µM
NCI-H322M; [2]
  CC50: 39.8 µM
NCI-H322M
  TGI: 12.0 µM
NCI-H460; Homo sapiens
  GI50: 1.86 µM
NCI-H460; [2]
  CC50: 6.33 µM
NCI-H460
  TGI: 3.43 µM
NCI-H522; Homo sapiens
  GI50: 4.15 µM
  LC50: > 100 µM
NCI-H522
  TGI: 23.5 µM
HCC-2998
  TGI: 4.88 µM
HCC-2998; Homo sapiens
  GI50: 2.22 µM
  LC50 (lethal concentration, 50% cell kill): 17.5 µM
HT29
  TGI: >100 µM
HT29; Homo sapiens, HT-29
  GI50: 3.64 µM
HT29; Homo sapiens, HT-29, read-out: LC50 (the source's name)
  CC50: > 100 µM
KM12; Homo sapiens
  GI50: 1.31 µM
KM12; [2]
  CC50: 5.07 µM
KM12
  TGI: 2.57 µM
SF-295; Homo sapiens
  GI50: 0.341 µM
SF-295; [2]
  CC50: 5.17 µM
SF-295
  TGI: 2.07 µM
MALME-3M; Homo sapiens
  GI50: 1.55 µM
MALME-3M; [2]
  CC50: 8.23 µM
MALME-3M
  TGI: 3.57 µM
SK-MEL-28; Homo sapiens
  GI50: 1.43 µM
SK-MEL-28; [2]
  CC50: 5.43 µM
SK-MEL-28
  TGI: 2.79 µM
OVCAR-4; Homo sapiens
  GI50: 9.3 µM
OVCAR-4; [2]
  CC50: > 100 µM
OVCAR-4
  TGI: 68.8 µM
SK-OV-3; Homo sapiens
  GI50: 1.61 µM
SK-OV-3; [2]
  CC50: 5.88 µM
SK-OV-3
  TGI: 3.08 µM
786-0
  TGI: 11.1 µM
786-0; Homo sapiens
  GI50: 3.42 µM
786-0; [2]
  CC50: 91.1 µM
CAKI-1
  TGI: 34.0 µM
CAKI-1; Homo sapiens
  GI50: 0.135 µM
CAKI-1; [2]
  CC50: > 100 µM
SN12C; Homo sapiens
  GI50: 1.17 µM
SN12C; [2]
  CC50: 5 µM
SN12C
  TGI: 2.41 µM
TK-10; Homo sapiens
  GI50: 3.59 µM
TK-10; [2]
  CC50: 55.4 µM
TK-10
  TGI: 17.6 µM
UO-31; Homo sapiens
  GI50: > 100 µM
UO-31; [2]
  CC50: > 100 µM
UO-31
  TGI: >100 µM
BT-549
  TGI: 26.9 µM
BT-549; Homo sapiens
  GI50: 11.7 µM
BT-549; [2]
  CC50: 61.6 µM
[1]; 10 μM, lowest to highest of the ten cell lines
  Range (Percentage of Control over the same 10 cell lines): 4.3 to 108.6%
[1]; average of the ten Percentage of Control values, read-out: ARF (Average Response Factor, Average Percentage of Control)
  viability at 10 µM: 76.8%
